Source: US20110268660A1, “METHOD FOR DETECTING DYSPLASIA” (priority 2008, published 2011)

Key:
human EGFR = biological target: T1, human EGFR (Homo sapiens, UniProt P00533); assay: Fluorescence polarization binding assay; settings: dye-labelled ligand 5 nM; human recombinant EGFR/Fc chimera 0-258 nM; 10 min at 30° C.; triplicates; read-out: Kd value towards human EGFR
T1 construct: purchased R&D systems 344-ER
Experimental: The fluorescence polarization binding measurements were performed as triplicates in 384-well microplates in a volume of 40 μL in binding buffer (PBS, 0.01% Tween-20, pH 7.5) using a Tecan Safire fluorescence polarisation plate reader at ex646/em678 nm. The concentration of dye-labelled ligand was held constant (5 nM) and the concentrations of the target (human recombinant EGFR/Fc chimera from R&D systems, cat. no 344-ER) was varied from 0-258 nM. Binding mixtures were equilibrated in the microplate for 10 min at 30° C.
Data fitting was performed via nonlinear regression using SigmaPlot software (version 10) to obtain the Kd value.

[1] = biological target: human recombinant EGFR/Fc chimera (R&D systems, cat. no 344-ER) (human) (UniProt P00533); assay: fluorescence polarization, 5 nM dye-labelled ligand, EGFR/Fc titrated 0-258 nM, in solution

Substance: anti-EGFR Affibody His6-ZEGFR:1907-Cys(Cy5**) [Compound 14]
- Kd (human EGFR): 4.1 nM

Substance: anti-EGFR Affibody His6-ZEGFR:1907-Cys(Cy5**) (Compound 14) (designed binder)
- Kd [1]: 4.1 nM
